# Measured values taken from patent US12459915B2, “Biaryl derivative useful as diacylglycerol acyltransferase 2 inhibitor, and use thereof” (LG CHEM, LTD., priority 2020, dated 2025).
# Target: Recombinant human DGAT2 protein (Homo sapiens (Human), UniProt Q96PD7)
# Experiment: Measurement of inhibitory effect against DGAT2 enzyme activity (SPA, Phospholipid Flash Plate)
# Type: biochemical
# Settings: DGAT2-membrane protein from Sf-21 cells, [14C] oleoyl CoA, 1,2 sn-oleoyl glycerol, 37° C.; read-out: IC50 (concentration of the compound that inhibits TG production by 50%)
# Description: In order to prepare the pBacPAK9-DGAT2, which is DGAT2 expression vector, the human DGAT2 gene amplified by polymerase chain reaction (PCR) was cloned into the EcoR1 and Xho1 sites of the pBacPAK9 (clonctech) vector. The nucleotide sequence of the primers used in PCR was the forward primer 5′ […] and the reverse primer 5′ […]. The composition of the reaction solution was to contain 50 ng of cDNA clone (OriGene), 200 μM of dATP, dCTP, dTTP, dGTP, 200 nM of each primer, 1 unit of Tag DNA Polymerase (Toyobo), 1×PCR buffer, and the final volume was adjusted to 20 μl. […]
# Recombinant human DGAT2 protein was expressed in Sf-21 cells, which are insect cells, by using the BacPack baculovirus expression system (Clontech). […] Protein concentration was quantified by using the BCA Protein Assay Kit (Thermo Scientific).
# In vitro DGAT2 analysis was performed using a Phospholipid Flash Plate (PerkinElmer) based on the principle of SPA (Scintilation Proximity Assay). […] The next day, the amplified scintillation signal (cpm) in Topcounter (Packard) was measured to measure the degree of production of [14C]-labeled triacyl glycerol (TG) as a reaction product. The measured value when the compound was not treated was used as a positive control, and the measured value of the compound treated group was calculated as a relative % to measure the inhibition effect of the compound on TG production. […]
# Chain of Recombinant human DGAT2 protein (Q96PD7 whole entry): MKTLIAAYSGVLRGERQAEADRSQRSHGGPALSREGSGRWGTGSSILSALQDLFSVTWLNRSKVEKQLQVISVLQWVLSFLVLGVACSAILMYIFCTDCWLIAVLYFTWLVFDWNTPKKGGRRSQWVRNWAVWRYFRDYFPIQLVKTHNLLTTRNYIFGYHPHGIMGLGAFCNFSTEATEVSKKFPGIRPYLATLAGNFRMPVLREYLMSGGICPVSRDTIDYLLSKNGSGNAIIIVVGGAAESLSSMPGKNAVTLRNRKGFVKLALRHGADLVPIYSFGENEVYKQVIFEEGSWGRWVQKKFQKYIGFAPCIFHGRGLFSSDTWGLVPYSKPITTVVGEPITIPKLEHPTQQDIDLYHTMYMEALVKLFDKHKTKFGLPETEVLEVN
structure (smiles),measurement,value
"CCOc1ccccc1Oc1cccc(-c2cncc(NC(=O)Cc3ccc(CC(=O)O)cc3)n2)c1 [Example 11, 2-(4-(2-((6-(3-(2-ethoxyphenoxy)phenyl)pyrazin-2-yl)amino)-2-oxoethyl)phenyl)acetic acid]",IC50,0.37 µM
